Results as given in US9968650B2, “Modified viral structural protein with antiviral activity” (priority 2011, dated 2018).
“Also recorded” adds a separate entry of the source.

Columns and labels:
Cp149 dimer interface = molecular target: T1, Cp149 dimer interface (Hepatitis B virus genotype D subtype adw, UniProt P03147); details: cited from earlier work
T1 construct: (Cp149), which is the N-terminal first 149 residues of the core protein

HIV-1 NL4-3 = details: cited from earlier work
HIV-1 CA = HIV-1 CA (Human immunodeficiency virus type 1 group M subtype B, UniProt P12493); details: cited from earlier work
Gag = Gag (Human immunodeficiency virus type 1 group M subtype B, UniProt P12493); details: cited from earlier work
HBV capsid assembly [1] = test: Size exclusion chromatography of equilibrium capsid assembly and calculation of thermodynamic parameters; format: biochemical, Hepatitis B virus (HBV); details: 100 mM NaCl, 23° C.; for pseudo-critical concentration: 72 h equilibration
Procedure: (§1) The adyw strain of HBV Cp149-pET11c (Genbank accession no. J02202.1) construct was mutated to Cp149-V124W (GTG to TGG) with the QuikChange mutagenesis kit (Stratagene). […] V124W purification was performed as previously described for HBV Cp149-WT purification. Based on the biochemical studies in this paper, in the re-assembly step, using 50 mM NaCl instead of 500 mM NaCl to induce re-assembly yielded more capsid with slightly more aggressive assembly activity. Protein concentration was determined using an extinction coefficient of 70,025 M^−1 cm^−1 per V124W dimer at 280 nm, calculated by ExPASy Proteomics Server based on the protein sequence and assuming one disulfide bond per dimer WT dimer was purified exactly as previously described. The extinction coefficient of WT dimer is 60,900 M^−1 cm^−1 at 280 nm. Before assembly studies, frozen protein stock was dialyzed into 50 mM HEPES, pH 7.5 for at least 2×2 h at 4° C. The standard assembly buffer was 50 mM HEPES, pH 7.5 at 23° C. with varied NaCl concentrations. Protein stock was treated with 1% to 5% β-mercaptoethanol for 20 min before assembly.
WT and V124W at varied concentrations (WT, 40 to 80 μM; V124W, 2.5 to 30 μM), were induced to assemble at 100 mM NaCl to equilibration for 72 h or longer at 23° C. […] Capsid and dimer concentrations in assembly reactions were determined by size exclusion chromatography (SEC) through a 21 ml Superose 6 column. ΔGcontact and KD,apparent were calculated as previously described. KD,apparent was the average of the equilibrium dimer concentrations which were nearly constant.

HBV capsid assembly [2] = molecular target: T2, HBV capsid assembly (Hepatitis B virus genotype D subtype adw, UniProt P03147); test: Extent of core protein assembly without HAP12 by size exclusion chromatography; format: biochemical
T2 construct: (Cp149), which is the N-terminal first 149 residues of the core protein; made in house; host or cells: E. coli BL21 (DE3) (printed for V124W; WT 'as previously described')
T2 sequence (P03147 1-149): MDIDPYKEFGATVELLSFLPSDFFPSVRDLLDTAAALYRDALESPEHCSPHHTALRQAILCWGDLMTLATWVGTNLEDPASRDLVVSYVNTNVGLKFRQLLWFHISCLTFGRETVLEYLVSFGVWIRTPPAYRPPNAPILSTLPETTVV
Procedure: as §1
(§2) To test for resistance to HAP molecules, 10 μM protein with varied HAP12 concentrations (2.5 to 60 μM) was induced to assemble at 50 mM NaCl. Before adding 10× NaCl, protein was incubated with HAP12 at 23° C. for 20 min. Each reaction was incubated at 23° C. for 24 h to equilibrate. Under these conditions, 24 h was long enough to allow reactions to reach equilibrium. Capsid, abnormal structures and dimer concentrations were determined by SEC as described above.

HBV capsid assembly [3] = test: as above; format: biochemical, Hepatitis B virus (HBV); details: 10 μM protein, 50 mM NaCl, 23° C., without HAP12
Procedure: as §1, §2

HBV capsid assembly [4] = test: 90° light scattering assembly kinetics of core protein alone; format: biochemical, Hepatitis B virus (HBV); details: 10 μM protein, 50 mM NaCl, first 800 seconds
Procedure: Light scattering was monitored at 90° using 400 inn excitation and emission wavelength with a Photon Technology International fluorometer for at least 800 seconds at 23° C. 10 μM protein (WT or V124W) was incubated with or without 20 μM HAP12 for 20 min prior to adding equal volume of 2× NaCl to a final concentration of 50 mM NaCl. Each sample was repeated 3-4 times independently.
90° Light scattering is a well-established method to monitor the virus assembly kinetics because of the significant difference between the size of the capsid and the dimer. HBV core protein assembly is induced by increasing the ionic strength in vitro, which is achieved by adding NaCl to the reaction system. Higher ionic strength leads to assembly faster and further due to the stronger association energy between dimers.

HBV replication = test: Southern blot analysis of encapsidated HBV DNA in transfected Huh7 cells; format: cell-based, Hepatitis B virus (HBV); details: WT normalized to 100%, SD in parenthesis, * values at limit of detection
Text: (§3) All HBV plasmids used in cell culture experiments were derived from subtype ayw (Genbank accession no. V01460). These plasmids express pgRNA under the control of the cytomegalovirus (CMV) immediate early promoter. […] Plasmids C^WT or C^V124W express core protein but not P or envelope proteins and lack a functional encapsidation signal, GFP protein was expressed from a separate plasmid (provided by Bill Sugden, UW-Madison). Details of construction and sequence of any plasmid will be provided upon request.
The human hepatoma cell line Huh7 was used to study HBV replication. Cells were grown in 60 mm plates at 37° C. in 5% CO2, in DMEM/F12 medium supplemented with 5% FBS (Invitrogen, Grand Island, N.Y.). Cells were approximately 75% confluent or greater at time of transfection. DNA transfections were performed using calcium phosphate precipitation. For experiments using WT^P+C+ and V124W^P+C+, 5 μg of total plasmid mass was transfected. Each transfection experiments were repeated three times independently. For V124W titration experiment, 2 μg WT^P+C+ and varied C^V124W (0 to 8 μg) were used. A filler plasmid pCMV-Sport6 was used to keep the total plasmid mass at 10 μg. 0.125 μg of the GFP expression plasmid was used in every transfection. Typically, medium containing the calcium phosphate precipitate was removed after 16 hours, fresh medium added, and the cultures were grown for an additional 96 hours.
Nucleic acid from cytoplasmic capsids was isolated as described previously. Briefly, cells were lysed in a solution containing 50 mM Tris, 1 mM EDTA, 0.2% NP40, pH 8.0. Nuclei were pelleted via centrifugation and supernatant was collected. A fraction of this lysate was used for detection of core protein and GFP. The remainder of the cytoplasmic lysate was treated with 45 units of micrococcal nuclease (Worthington Biochemicals, Lakewood, N.J.) in the presence of 2 mM CaCl2 to digest plasmid DNA and unencapsidated pgRNA, followed by treatment with 0.4% SDS and 0.4 mg/ml Pronase® (Roche, Nutley, N.J.) to digest nucleocapsids and P protein. Encapsidated nucleic acids were extracted with 1:1 phenokchloroform, precipitated with ethanol and NaCl, and re-suspended in 30 μl of a solution of 10 mM Tris, 0.1 mM EDTA, pH 8.0.
An aliquot of viral DNA was electrophoresed through a 1.25% agarose gel. DNA was denatured and neutralized in situ in 0.5 N NaOH/1.5 M NaCl and 1 M Tris/1.5 M NaCl, respectively, followed by passive transfer to Hybond-N (GE® Lifesciences, Piscataway, N.J.) in 10×SSC. Viral DNA was detected on the membrane using an equimolar pool of oligonucleotides that detected (−) DNA. […] Levels of DNA were measured using the software ImageQuant® 5.2 (Molecular Dynamics). DNA levels were normalized to GFP levels as determined previously by western blot. […]

core protein = test: Western blot analysis of core protein level in transfected Huh7 cells; format: cell-based, Hepatitis B virus (HBV); details: normalized to GFP, WT = 100%, SD in parenthesis
Text: as §3
The human hepatoma cell line Huh7 was used to study HBV replication. Cells were grown in 60 mm plates at 37° C. in 5% CO2, in DMEM/F12 medium supplemented with 5% FBS (Invitrogen, Grand Island, N.Y.). […]
A fraction of cytoplasmic lysate was used to run a 15% SDS-PAGE, followed by transfer of proteins to PVDF-FL (Millipore®, Billerica, Mass.) in methanol transfer buffer (details of SDS-PAGE and transfer solutions provided upon request). […] Core protein was detected using a rabbit α-core antibody (Austral Biologicals®, San Ramon, Calif.) at a dilution of 1:500, and a goat α-rabbit IRDye800CW antibody (Li-Cor®) at a dilution of 1:10,000. GFP was detected using a mouse α-GFP antibody (Santa Cruz® Biotechnology, San Cruz, Calif.) at a dilution of 1:500, and a goat α-mouse IRDye680LT antibody (Li-Cor®) at a dilution of 1:10,000. […] Core levels were normalized to GFP levels for quantitation. […]

T1 sequence (P03147 1-149): as above

In the case of COC(=O)C1=C(C)NC(c2ncc(F)cc2F)=N[C@H]1c1ccc(F)cc1Cl [BAY41-4109], the “HAP stoichiometry necessary to generate aberrant structures” value (Cp149 dimer interface; pure BAY41-4109) is listed as “greater than one HAP per two dimers”.

For Cc1[nH]c2ccccc2c1CC(=O)N[C@@H](Cc1ccccc1)C(=O)N(C)c1ccccc1 [PF-3450074], the “antiviral activity against HIV” value (HIV-1 NL4-3) is listed as “inhibit HIV replication”, the “rate of CA multimerization” value (HIV-1 CA) is listed as “significant increase” and the Gag association (Gag) is listed as “does not inhibit”.

With “WT: wild type HBV core protein; Cp149 is the N-terminal 149-residue assembly domain, used as control” the ΔGcontact (HBV capsid assembly [1]) was -2.74 ± 0.04 kcal/mol, the pseudo-critical concentration (HBV capsid assembly [1]) was “about 43 μM” and the pseudo-critical concentration (HBV capsid assembly [1]; listed as wild type Cp149) was 43.6 ± 5.1 µM. For the same molecule, the ΔGcontact (HBV capsid assembly [1]; listed as wild type Cp149) was -2.74 ± 0.04 kcal/mol, the Kd (HBV capsid assembly [1]; read-out: KD, apparent) was 43.3 ± 4.97 µM and the “capsid formation at 150 mM NaCl” value (HBV capsid assembly [2]; 10 μM protein, 150 mM NaCl (data not shown)) was “did not observe any capsid formation”. For the same molecule, the “concentration needed to see any assembly” value (HBV capsid assembly [2]; under similar conditions (NaCl-induced assembly, FIG. 10)) was 45 µM, the “extent of assembly (dimers assembled into capsids)” value (HBV capsid assembly [3]) was “no assembly” and the “extent of assembly (dimers assembled into capsids)” value (HBV capsid assembly [3]; listed as wild type Cp149) was “does not assemble at all; also recorded: no assembly”. The “assembly kinetics without HAP12 (in words)” value (HBV capsid assembly [4]) was “did not assemble”, the “association energy at the dimer interface” value (Cp149 dimer interface; 150 mM NaCl 37° C., without HAP) was -3.87 kcal/mol and the dlDNA (HBV replication) was 100% (27%). For the same molecule, the ssDNA (HBV replication) was 100% (19%), the “total DNA” value (HBV replication) was 100% (19%) and the rcDNA (HBV replication; three independent transfections) was 100% (46%). The core protein (core protein) was 100% (39%).
